Where two headings read alike, the source gives them in different places.
Tested on: SARS-CoV-2 (USA-WA1/2020) in Calu-3 cells
Format: cell-based
[1] = high dose (10 µM), Calu-3, 48 h
[2] = low dose (100 nM), Calu-3, 48 h

| Compound | dsRNA signal, AU High [1] | dsRNA signal, AU Low [2] | dsRNA signal, AU High | dsRNA signal, AU Low |
| --- | --- | --- | --- | --- |
| CCC(=O)N1CCN(c2ccc(-n3c(=O)ccc4cnc5ccc(-c6cnc7ccccc7c6)cc5c43)cc2C(F)(F)F)CC1 [Torin 1] | 1083.7 AU | 14896.3 AU |  |  |
| COc1ccc(-c2ccc3c(N4CCOC[C@@H]4C)nc(N4CCOC[C@@H]4C)nc3n2)cc1CO [AZD8055] | 0.0 AU | 39910.8 AU |  |  |
| O=C1c2c(O)cc(O)cc2O[C@H](c2cc(O)c(O)c(O)c2)[C@H]1O [Dihydromyricetin] | 20863.8 AU | 12380.4 AU |  |  |
| CNC(=O)c1ccc(C)c(-n2c(C)cc(OCc3ccc(F)cc3F)c(Br)c2=O)c1 [PH-797804] | 733.9 AU | 57938.0 AU |  |  |
| COc1cc2ncnc(Nc3ccc(F)c(Cl)c3)c2cc1OCCCN1CCOCC1.Cl [Gefitinib hydrochloride] |  |  | 0.0 | 28000.5 |
| Cc1ccc(C(=O)Nc2ccc(CN3CCN(C)CC3)c(C(F)(F)F)c2)cc1C#Cc1cnc2[nH]ncc2c1 [GZD824] | 64275.0 AU | 33439.8 AU |  |  |
| O=C(NCCO)c1cccc(-c2cc(Nc3ccc(OC(F)(F)F)cc3)ncn2)c1 [GNF 5] | 498.5 AU | 65630.6 AU |  |  |
| O=C(NC[C@H](O)CO)c1ccncc1Nc1ccc(I)cc1F [Pimasertib (AS-703026)] | 11387.3 AU | 3667.2 AU |  |  |
| c1ccc(-c2[nH]ncc2-c2ccnc3ccccc23)nc1 [LY364947] | 12638.5 AU | 3456.2 AU |  |  |
| Ginkgolide C | 4330.9 AU | 14963.6 AU |  |  |
| CNC(=O)c1ccc(-c2cnc3ncc(Cc4ccc5ncccc5c4)n3n2)cc1F [INCB28060] | 59276.3 AU | 63091.3 AU |  |  |
| O=C(O)c1ccc(N2C(=O)/C(=C\c3ccc(-c4ccc([N+](=O)[O-])cc4)o3)C=C2c2ccccc2)cc1 [4E1RCat] | 11534.6 AU | 17206.1 AU |  |  |
| COc1cc2nccc(Oc3ccc(NC(=O)C4(C(=O)Nc5ccc(F)cc5)CC4)cc3)c2cc1OC [Cabozantinib (XL184, BMS-907351)] | 13075.8 AU | 39205.8 AU |  |  |
| COc1ccc(-c2coc3cc(O)cc(O)c3c2=O)cc1 [Biochanin A] | 14982.3 AU | 21751.5 AU |  |  |
| O=C1NC(=O)C(=Cc2ccc(-c3ccc(F)cc3)o2)S1 (stereo in doubt) [CAY10505] | 15375.8 AU | 16784.8 AU |  |  |
| O=C1NC(=O)/C(=C/c2cccc(C(F)(F)F)c2)S1 [TCS-PIM-1-4a] | 1917.5 AU | 12250.9 AU |  |  |
| HG-10-102-01 | 14367.4 AU | 32713.5 AU |  |  |
| KN-93 | 14156.8 AU | 6603.8 AU |  |  |
| COc1ccc(COc2ccc(Cc3cnc(N)nc3N)cc2OC)cc1 [GW2580] | 17974.9 AU | 13531.9 AU |  |  |
| Nc1ncnc2c1c(-c1cccc(OCc3ccccc3)c1)cn2[C@H]1C[C@@H](CN2CCC2)C1 [NVP-AEW541] | 1274.0 AU | 19640.6 AU |  |  |
| CCS(=O)(=O)N1CC(CC#N)(n2cc(-c3ncnc4[nH]ccc34)cn2)C1 [Baricitinib (LY3009104, INCB028050)] | 27614.1 AU | 24279.2 AU |  |  |

Source: paper PMC12142043, “Cell-based high-content approach for SARS-CoV-2 neutralization identifies unique monoclonal antibodies and PI3K pathway inhibitors” (Frontiers in Cell and Developmental Biology, 2025)
